Measured values: the supplement of paper PMC6965134
± gives the standard deviation of the averaged measurements.

Test: TIMS collisional cross section (CCS, N2) of the lipid ion; higher = larger ion cross section
Conditions: ionization mode: positive, one isomer drawn

CCCCC/C=C\CCCCCCCC(=O)OC[C@H](COC(=O)CCCCCCC/C=C\CCCCCC)OC(=O)CCCCCCC/C=C\CCCCCC [TG 15:1_16:1_16:1] (ion (formula + adduct): [C50H90O6+NH4] 1+)
TIMS collisional cross section (sample type: HeLa): 305 Å²

CCCCC/C=C\CCCCCCCC(=O)OC[C@H](COC(=O)CCCCCCCCCCCCCCCC)OC(=O)CCCCCCC/C=C\CCCCCC [TG 15:1_16:1_17:0] (ion (formula + adduct): [C51H94O6+NH4] 1+)
TIMS collisional cross section (sample type: Liver): 309.9 Å²

CCCCC/C=C\CCCCCCCC(=O)OC[C@H](COC(=O)CCCCCCC/C=C\CCCCCCC)OC(=O)CCCCCCC/C=C\CCCCCC [TG 15:1_16:1_17:1] (ion (formula + adduct): [C51H92O6+NH4] 1+)
TIMS collisional cross section (sample type: Liver): 308.7 Å²

CCCCC/C=C\CCCCCCCC(=O)OC[C@H](COC(=O)CCCCCCC/C=C\CCCCCCCC)OC(=O)CCCCCCC/C=C\CCCCCC [TG 15:1_16:1_18:1] (ion (formula + adduct): [C52H94O6+NH4] 1+)
TIMS collisional cross section (sample type: HeLa): 310.8 Å² | TIMS collisional cross section (sample type: Liver): 312.2 Å²

CCCCC/C=C\C/C=C\CCCCCCCC(=O)OC[C@@H](COC(=O)CCCCCCC/C=C\CCCCC)OC(=O)CCCCCCC/C=C\CCCCCC [TG 15:1_16:1_18:2] (ion (formula + adduct): [C52H92O6+NH4] 1+)
TIMS collisional cross section (sample type: HeLa): 308.4 Å²

C(OC(=O)CCCCCCCCCCCCCCC)[C@]([H])(OC(CCCCCCCCCCCCCCC)=O)COC(CCCCCCCCCCCCCCC)=O [TG 16:0_16:0_16:0] (ion (formula + adduct): [C51H98O6+NH4] 1+)
TIMS collisional cross section (sample type: plasma): 314.45 ± 0.21 Å²

CCCCCC/C=C\CCCCCCCC(=O)OC[C@@H](COC(=O)CCCCCCCCCCCCCCC)OC(=O)CCCCCCCCCCCCCCC [TG 16:0_16:0_16:1] (ion (formula + adduct): [C51H96O6+NH4] 1+)
TIMS collisional cross section (sample type: HeLa): 311.7 Å²

CCCCCCCCCCCCCCCCC(=O)OC[C@@H](COC(=O)CCCCCCCCCCCCCCC)OC(=O)CCCCCCCCCCCCCCC [TG 16:0_16:0_17:0] (ion (formula + adduct): [C52H100O6+NH4] 1+)
TIMS collisional cross section (sample type: HeLa): 317.5 Å² | TIMS collisional cross section (sample type: Liver): 317.6 Å² | TIMS collisional cross section (sample type: plasma): 317.6 Å²

CCCCCCC/C=C\CCCCCCCC(=O)OC[C@@H](COC(=O)CCCCCCCCCCCCCCC)OC(=O)CCCCCCCCCCCCCCC [TG 16:0_16:0_17:1] (ion (formula + adduct): [C52H98O6+NH4] 1+)
TIMS collisional cross section (sample type: Liver): 315.2 Å²

CCCCCCCCCCCCCCCCCC(=O)OC[C@@H](COC(=O)CCCCCCCCCCCCCCC)OC(=O)CCCCCCCCCCCCCCC [TG 16:0_16:0_18:0] (ion (formula + adduct): [C53H102O6+NH4] 1+)
TIMS collisional cross section (sample type: HeLa): 319.9 Å² | TIMS collisional cross section (sample type: Liver): 320.7 Å² | TIMS collisional cross section (sample type: plasma): 320.25 ± 0.35 Å²

CCCCCC/C=C/CCCCCCCCCC(=O)OC[C@@H](COC(=O)CCCCCCCCCCCCCCC)OC(=O)CCCCCCCCCCCCCCC [TG 16:0_16:0_18:1] (ion (formula + adduct): [C53H100O6+NH4] 1+)
TIMS collisional cross section (sample type: HeLa): 318.75 ± 0.21 Å² | TIMS collisional cross section (sample type: plasma): 318.4 Å²

CCCCCCCCC/C=C\CCCCCCCC(=O)OC[C@@H](COC(=O)CCCCCCCCCCCCCCC)OC(=O)CCCCCCCCCCCCCCC [TG 16:0_16:0_19:1] (ion (formula + adduct): [C54H102O6+NH4] 1+)
TIMS collisional cross section (sample type: HeLa): 321.5 Å²

CCCCCCCC/C=C\CCCCCCCCCC(=O)OC[C@@H](COC(=O)CCCCCCCCCCCCCCC)OC(=O)CCCCCCCCCCCCCCC [TG 16:0_16:0_20:1] (ion (formula + adduct): [C55H104O6+NH4] 1+)
TIMS collisional cross section (sample type: HeLa): 324.7 Å²

CCCCC/C=C\C/C=C\C/C=C\C/C=C\CCCC(=O)OC[C@@H](COC(=O)CCCCCCCCCCCCCCC)OC(=O)CCCCCCCCCCCCCCC [TG 16:0_16:0_20:4] (ion (formula + adduct): [C55H98O6+NH4] 1+)
TIMS collisional cross section (sample type: HeLa): 320.5 Å²

CC/C=C\C/C=C\C/C=C\C/C=C\C/C=C\CCCC(=O)OC[C@@H](COC(=O)CCCCCCCCCCCCCCC)OC(=O)CCCCCCCCCCCCCCC [TG 16:0_16:0_20:5] (ion (formula + adduct): [C55H96O6+Na] 1+)
TIMS collisional cross section (sample type: Liver): 314.5 Å²

CC/C=C\C/C=C\C/C=C\C/C=C\C/C=C\C/C=C\CCC(=O)OC[C@@H](COC(=O)CCCCCCCCCCCCCCC)OC(=O)CCCCCCCCCCCCCCC [TG 16:0_16:0_22:6] (ion (formula + adduct): [C57H98O6+NH4] 1+)
TIMS collisional cross section (sample type: HeLa): 324 Å²

CCCCCC/C=C\CCCCCCCC(=O)OC[C@@H](COC(=O)CCCCCCCCCCCCCCC)OC(=O)CCCCCCC/C=C\CCCCCC [TG 16:0_16:1_16:1] (ion (formula + adduct): [C51H94O6+NH4] 1+)
TIMS collisional cross section (sample type: Liver): 310.2 Å²

CCCCCC/C=C\CCCCCCCC(=O)O[C@H](COC(=O)CCCCCCCCCCCCCCC)COC(=O)CCCCCCCCCCCCCCCC [TG 16:0_16:1_17:0] (ion (formula + adduct): [C52H98O6+NH4] 1+)
TIMS collisional cross section (sample type: HeLa): 315.8 Å²

CCCCCC/C=C\CCCCCCCC(=O)O[C@@H](COC(=O)CCCCCCC/C=C\CCCCCCC)COC(=O)CCCCCCCCCCCCCCC [TG 16:0_16:1_17:1] (ion (formula + adduct): [C52H96O6+NH4] 1+)
TIMS collisional cross section (sample type: plasma): 313.2 Å²

CCCCCC/C=C\CCCCCCCC(=O)O[C@@H](COC(=O)CCCCCCC/C=C\CCCCCCCC)COC(=O)CCCCCCCCCCCCCCC [TG 16:0_16:1_18:1] (ion (formula + adduct): [C53H98O6+NH4] 1+)
TIMS collisional cross section (sample type: HeLa): 315.9 Å² | TIMS collisional cross section (sample type: Liver): 315.95 ± 0.53 Å² | TIMS collisional cross section (sample type: plasma): 315.8 ± 0.27 Å²

CCCCC/C=C\C/C=C\CCCCCCCC(=O)OC[C@@H](COC(=O)CCCCCCCCCCCCCCC)OC(=O)CCCCCCC/C=C\CCCCCC [TG 16:0_16:1_18:2] (ion (formula + adduct): [C53H96O6+NH4] 1+)
TIMS collisional cross section (sample type: HeLa): 314.4 Å² | TIMS collisional cross section (sample type: Liver): 313.45 ± 0.55 Å² | TIMS collisional cross section (sample type: plasma): 313.6 ± 0.44 Å²

CC/C=C\C/C=C\C/C=C\C/C=C\C/C=C\CCCCCC(=O)OC[C@@H](COC(=O)CCCCCCCCCCCCCCC)OC(=O)CCCCCCC/C=C\CCCCCC [TG 16:0_16:1_22:5] (ion (formula + adduct): [C57H98O6+NH4] 1+)
TIMS collisional cross section (sample type: HeLa): 321.9 Å²

CC/C=C\C/C=C\C/C=C\C/C=C\C/C=C\C/C=C\CCC(=O)OC[C@@H](COC(=O)CCCCCCCCCCCCCCC)OC(=O)CCCCCCC/C=C\CCCCCC [TG 16:0_16:1_22:6] (ion (formula + adduct): [C57H96O6+NH4] 1+)
TIMS collisional cross section (sample type: HeLa): 321.4 Å²

CCCCCCC/C=C\CCCCCCCC(=O)OC[C@@H](COC(=O)CCCCCCCCCCCCCCC)OC(=O)CCCCCCCCCCCCCCCC [TG 16:0_17:0_17:1] (ion (formula + adduct): [C53H100O6+NH4] 1+)
TIMS collisional cross section (sample type: Liver): 317.9 Å²

CCCCCCCCCCCCCCCCCC(=O)OC[C@@H](COC(=O)CCCCCCCCCCCCCCC)OC(=O)CCCCCCCCCCCCCCCC [TG 16:0_17:0_18:0] (ion (formula + adduct): [C54H104O6+NH4] 1+)
TIMS collisional cross section (sample type: HeLa): 323.3 Å² | TIMS collisional cross section (sample type: Liver): 323.6 Å² | TIMS collisional cross section (sample type: plasma): 323.4 Å²

CCCCCCCC/C=C\CCCCCCCC(=O)OC[C@@H](COC(=O)CCCCCCCCCCCCCCC)OC(=O)CCCCCCCCCCCCCCCC [TG 16:0_17:0_18:1] (ion (formula + adduct): [C54H102O6+NH4] 1+)
TIMS collisional cross section (sample type: HeLa): 321.9 Å² | TIMS collisional cross section (sample type: Liver): 321.6 Å² | TIMS collisional cross section (sample type: plasma): 321.6 Å²

CCCCCCCCCCCCCCCCCCCC(=O)OC[C@@H](COC(=O)CCCCCCCCCCCCCCC)OC(=O)CCCCCCCCCCCCCCCC [TG 16:0_17:0_20:0] (ion (formula + adduct): [C56H108O6+NH4] 1+)
TIMS collisional cross section (sample type: HeLa): 328.6 Å²

CCCCCCCCCCCCCCCCCCCCCC(=O)OC[C@@H](COC(=O)CCCCCCCCCCCCCCC)OC(=O)CCCCCCCCCCCCCCCC [TG 16:0_17:0_22:0] (ion (formula + adduct): [C58H112O6+NH4] 1+)
TIMS collisional cross section (sample type: Liver): 335 Å² | TIMS collisional cross section (sample type: plasma): 334.9 ± 0.42 Å²

CCCCCCCC/C=C\CCCCCCCCCCCC(=O)OC[C@@H](COC(=O)CCCCCCCCCCCCCCC)OC(=O)CCCCCCCCCCCCCCCC [TG 16:0_17:0_22:1] (ion (formula + adduct): [C58H110O6+NH4] 1+)
TIMS collisional cross section (sample type: HeLa): 332.9 Å²

CCCCCCC/C=C\CCCCCCCC(=O)O[C@@H](COC(=O)CCCCCCC/C=C\CCCCCCCC)COC(=O)CCCCCCCCCCCCCCC [TG 16:0_17:1_18:1] (ion (formula + adduct): [C54H100O6+NH4] 1+)
TIMS collisional cross section (sample type: HeLa): 319.4 Å² | TIMS collisional cross section (sample type: Liver): 319.35 ± 0.21 Å² | TIMS collisional cross section (sample type: plasma): 319.3 Å²

CCCCC/C=C\C/C=C\CCCCCCCC(=O)OC[C@@H](COC(=O)CCCCCCCCCCCCCCC)OC(=O)CCCCCCC/C=C\CCCCCCC [TG 16:0_17:1_18:2] (ion (formula + adduct): [C54H98O6+NH4] 1+)
TIMS collisional cross section (sample type: Liver): 316 Å² | TIMS collisional cross section (sample type: plasma): 317.8 Å²

CCCCC/C=C\C/C=C\C/C=C\C/C=C\CCCC(=O)OC[C@@H](COC(=O)CCCCCCCCCCCCCCC)OC(=O)CCCCCCC/C=C\CCCCCCC [TG 16:0_17:1_20:4] (ion (formula + adduct): [C56H98O6+NH4] 1+)
TIMS collisional cross section (sample type: HeLa): 321.4 Å²

CC/C=C\C/C=C\C/C=C\C/C=C\C/C=C\CCCCCC(=O)OC[C@@H](COC(=O)CCCCCCCCCCCCCCC)OC(=O)CCCCCCC/C=C\CCCCCCC [TG 16:0_17:1_22:5] (ion (formula + adduct): [C58H100O6+NH4] 1+)
TIMS collisional cross section (sample type: HeLa): 325.4 Å²

CC/C=C\C/C=C\C/C=C\C/C=C\C/C=C\C/C=C\CCC(=O)OC[C@@H](COC(=O)CCCCCCCCCCCCCCC)OC(=O)CCCCCCC/C=C\CCCCCCC [TG 16:0_17:1_22:6] (ion (formula + adduct): [C58H98O6+NH4] 1+)
TIMS collisional cross section (sample type: HeLa): 324.8 Å²
